Data on 6 compounds can be found in patent US9340600B2 (Indiana University Research and Technology Corporation, priority 2012, dated 2016).

Holding throughout (type): cell-based
The target of one assay is T1, GIP receptor (Homo sapiens, UniProt P48546).
T1 construct: expressed in transfected cells; host or cells: HEK293
T1 sequence (P48546 22-466): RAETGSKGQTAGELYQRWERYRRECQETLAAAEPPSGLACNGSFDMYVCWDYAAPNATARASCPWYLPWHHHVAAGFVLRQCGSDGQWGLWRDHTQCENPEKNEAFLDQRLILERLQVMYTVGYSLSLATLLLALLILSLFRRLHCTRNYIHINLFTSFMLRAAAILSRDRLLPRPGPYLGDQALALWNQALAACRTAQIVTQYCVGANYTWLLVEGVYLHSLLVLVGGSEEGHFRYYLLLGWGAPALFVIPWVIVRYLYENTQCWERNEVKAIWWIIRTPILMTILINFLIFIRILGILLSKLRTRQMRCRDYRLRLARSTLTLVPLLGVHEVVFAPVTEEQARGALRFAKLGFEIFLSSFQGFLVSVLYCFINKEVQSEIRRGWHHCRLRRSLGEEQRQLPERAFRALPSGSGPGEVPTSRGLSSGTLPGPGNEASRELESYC
Description: cAMP induction, firefly luciferase-based reporter assay in HEK293 cells co-transfected with GIP receptor. The conditions noted are these: EC50 at GIP Receptor. The text has this:
(§1) This example describes an exemplary method of testing the biological activity of the peptides of the present disclosures, which method involves assaying cAMP synthesis.

The next assay has as its target T2, glucagon receptor (Homo sapiens, UniProt P47871).
T2 construct: expressed in transfected cells; host or cells: HEK293
Description: cAMP induction, firefly luciferase-based reporter assay in HEK293 cells co-transfected with glucagon receptor. The note with it: EC50 at Glucagon Receptor.
From the text: as §1
(In general: A reporter such as luciferase makes a cellular process visible.)

A further assay has as its target T3, GLP-1 receptor (Homo sapiens, UniProt P43220).
T3 construct: expressed in transfected cells; host or cells: HEK293
Description: cAMP induction, firefly luciferase-based reporter assay in HEK293 cells co-transfected with GLP-1 receptor. The conditions noted are these: EC50 at GLP-1 Receptor.
From the text: as §1

Where [1] appears, read: Table 2, analogs of SEQ ID NO: 18 varying at positions 16-21.
The mark [2] stands for this setting: Table 3, analogs of SEQ ID NO: 18 varying at position 3.
Where [3] appears, read: Table 5, analogs of SEQ ID NO: 10.
Where [4] appears, read: Table 4, analogs of SEQ ID NO: 43 varying at position 3.

Structures are written as SMILES. *1 amine or outer side, *2 acyl side, *3 side chain or, on linkers, in order; H or OH if unused. Where a SMILES comes first, the peptide text is derived from it. Side-chain parts run from the residue outwards. [ ]: non-standard residue; d: D form. The star is where a group is joined. γGlu = O=C(O)[C@H](CCC(=O)[*:2])N[*:1]; Met(O2) = CS(=O)(=O)CC[C@H](N)C(=O)O; Palmitoyl = CCCCCCCCCCCCCCCC(=O)*; Aib = CC(C)(N)C(=O)O

T2 sequence (P47871 26-477): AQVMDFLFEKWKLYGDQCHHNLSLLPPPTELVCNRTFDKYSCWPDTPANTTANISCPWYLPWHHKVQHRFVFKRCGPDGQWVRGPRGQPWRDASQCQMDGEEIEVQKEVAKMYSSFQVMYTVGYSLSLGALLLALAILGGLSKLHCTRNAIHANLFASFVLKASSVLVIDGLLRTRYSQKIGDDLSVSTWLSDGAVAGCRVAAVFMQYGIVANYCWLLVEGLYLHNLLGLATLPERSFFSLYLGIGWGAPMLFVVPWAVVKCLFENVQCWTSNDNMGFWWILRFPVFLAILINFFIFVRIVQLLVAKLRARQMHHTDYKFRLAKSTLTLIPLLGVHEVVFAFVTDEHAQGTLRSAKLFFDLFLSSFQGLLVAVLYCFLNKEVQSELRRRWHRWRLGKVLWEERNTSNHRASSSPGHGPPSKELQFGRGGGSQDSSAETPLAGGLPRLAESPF
T3 sequence (P43220 24-463): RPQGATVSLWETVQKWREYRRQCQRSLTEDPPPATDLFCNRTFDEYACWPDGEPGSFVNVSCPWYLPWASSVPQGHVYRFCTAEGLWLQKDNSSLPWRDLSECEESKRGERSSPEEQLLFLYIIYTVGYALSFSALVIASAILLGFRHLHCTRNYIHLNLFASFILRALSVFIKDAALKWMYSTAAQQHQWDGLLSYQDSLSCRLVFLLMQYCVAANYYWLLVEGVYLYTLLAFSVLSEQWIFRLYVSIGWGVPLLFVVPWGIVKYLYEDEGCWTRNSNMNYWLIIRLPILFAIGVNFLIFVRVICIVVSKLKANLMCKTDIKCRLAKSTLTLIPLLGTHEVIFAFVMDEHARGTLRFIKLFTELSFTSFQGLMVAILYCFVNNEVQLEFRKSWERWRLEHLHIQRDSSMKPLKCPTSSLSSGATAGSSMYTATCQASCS

Broadly, the EC50 is the midpoint of the concentration-response curve. Low readings indicate a more potent agent, high ones a less potent agent. Take `CCCCCCCCCCCCCCCC(=O)N[C@@H](CCC(=O)NCCCC[C@H](NC(=O)[C@H](CC(=O)O)NC(=O)[C@H](CO)NC(=O)[C@@H](NC(=O)[C@H](Cc1ccccc1)NC(=O)[C@@H](NC(=O)CNC(=O)[C@H](CCC(N)=O)NC(=O)C(C)(C)NC(=O)[C@@H](N)Cc1c[nH]cn1)[C@@H](C)O)[C@@H](C)O)C(=O)N[C@@H](CO)C(=O)N[C@@H](CCCCN)C(=O)N[C@@H](Cc1ccc(O)cc1)C(=O)N[C@@H](CC(C)C)C(=O)N[C@@H](CC(=O)O)C(=O)N[C@@H](CCCCN)C(=O)N[C@@H](Cc1c[nH]cn1)C(=O)N[C@@H](C)C(=O)N[C@@H](C)C(=O)NC(C)(C)C(=O)N[C@@H](CCC(=O)O)C(=O)N[C@@H](Cc1ccccc1)C(=O)N[C@H](C(=O)N[C@@H](CCC(N)=O)C(=O)N[C@@H](Cc1c[nH]c2ccccc12)C(=O)N[C@@H](CC(C)C)C(=O)N[C@@H](CC(C)C)C(=O)N[C@@H](CC(=O)O)C(=O)NCC(=O)NCC(=O)N1CCC[C@H]1C(=O)N[C@@H](CO)C(=O)N[C@@H](CO)C(=O)NCC(=O)N[C@@H](C)C(=O)N1CCC[C@H]1C(=O)N1CCC[C@H]1C(=O)N1CCC[C@H]1C(=O)N[C@@H](CO)C(N)=O)C(C)C)C(=O)O` [compound 28] (H-H[Aib]QGTFTSDK([γGlu-Palmitoyl])SKYLDKHAA[Aib]EFVQWLLDGGPSSGAPPPS-NH2; N-terminus assumed): the concentration giving a half-maximal response (EC50) is 1 pM on GIP receptor (setting [1]), 6 pM on glucagon receptor (setting [1]) and 2 pM at GLP-1 receptor (setting [1]).

For the compound `CCCCCCCCCCCCCCCC(=O)N[C@@H](CCC(=O)NCCCC[C@H](NC(=O)[C@H](CC(=O)O)NC(=O)[C@H](CO)NC(=O)[C@@H](NC(=O)[C@H](Cc1ccccc1)NC(=O)[C@@H](NC(=O)CNC(=O)[C@H](CCS(C)(=O)=O)NC(=O)C(C)(C)NC(=O)[C@@H](N)Cc1c[nH]cn1)[C@@H](C)O)[C@@H](C)O)C(=O)N[C@@H](CO)C(=O)N[C@@H](CCCCN)C(=O)N[C@@H](Cc1ccc(O)cc1)C(=O)N[C@@H](CC(C)C)C(=O)N[C@@H](CCC(=O)O)C(=O)N[C@@H](CCC(=O)O)C(=O)N[C@@H](CCCNC(=N)N)C(=O)N[C@@H](C)C(=O)N[C@@H](C)C(=O)N[C@@H](CCC(N)=O)C(=O)N[C@@H](CCC(=O)O)C(=O)N[C@@H](Cc1ccccc1)C(=O)N[C@H](C(=O)N[C@@H](CCC(N)=O)C(=O)N[C@@H](Cc1c[nH]c2ccccc12)C(=O)N[C@@H](CC(C)C)C(=O)N[C@@H](CC(C)C)C(=O)N[C@@H](CCC(=O)O)C(=O)NCC(=O)NCC(=O)N1CCC[C@H]1C(=O)N[C@@H](CO)C(=O)N[C@@H](CO)C(=O)NCC(=O)N[C@@H](C)C(=O)N1CCC[C@H]1C(=O)N1CCC[C@H]1C(=O)N1CCC[C@H]1C(=O)N[C@@H](CO)C(N)=O)C(C)C)C(=O)O` [compound 41] (H-H[Aib][Met(O2)]GTFTSDK([γGlu-Palmitoyl])SKYLEERAAQEFVQWLLEGGPSSGAPPPS-NH2; N-terminus assumed), the half-maximal effective concentration (EC50) on GIP receptor (setting [2]) stood at 67 pM; on glucagon receptor (setting [2]), 592 pM; on GLP-1 receptor (setting [2]), 2 pM.

Regarding `CCCCCCCCCCCCCCCC(=O)N[C@@H](CCC(=O)NCCCC[C@H](NC(=O)[C@H](CC(=O)O)NC(=O)[C@H](CO)NC(=O)[C@@H](NC(=O)[C@H](Cc1ccccc1)NC(=O)[C@@H](NC(=O)CNC(=O)[C@H](CCC(=O)O)NC(=O)C(C)(C)NC(=O)[C@@H](N)Cc1c[nH]cn1)[C@@H](C)O)[C@@H](C)O)C(=O)N[C@@H](CO)C(=O)N[C@@H](CCCCN)C(=O)N[C@@H](Cc1ccc(O)cc1)C(=O)N[C@@H](CC(C)C)C(=O)N[C@@H](CCC(=O)O)C(=O)N[C@@H](CCC(=O)O)C(=O)N[C@@H](CCCNC(=N)N)C(=O)N[C@@H](C)C(=O)N[C@@H](C)C(=O)N[C@@H](CCC(N)=O)C(=O)N[C@@H](CCC(=O)O)C(=O)N[C@@H](Cc1ccccc1)C(=O)N[C@H](C(=O)N[C@@H](CCC(N)=O)C(=O)N[C@@H](Cc1c[nH]c2ccccc12)C(=O)N[C@@H](CC(C)C)C(=O)N[C@@H](CC(C)C)C(=O)N[C@@H](CCC(=O)O)C(=O)NCC(=O)NCC(=O)N1CCC[C@H]1C(=O)N[C@@H](CO)C(=O)N[C@@H](CO)C(=O)NCC(=O)N[C@@H](C)C(=O)N1CCC[C@H]1C(=O)N1CCC[C@H]1C(=O)N1CCC[C@H]1C(=O)N[C@@H](CO)C(N)=O)C(C)C)C(=O)O` [compound 29] (H-H[Aib]EGTFTSDK([γGlu-Palmitoyl])SKYLEERAAQEFVQWLLEGGPSSGAPPPS-NH2; N-terminus assumed), the results for the half-maximal effective concentration (EC50) on GIP receptor (setting [2]), on glucagon receptor (setting [2]) and at GLP-1 receptor (setting [2]) were 17 pM, 1500 pM and 8 pM, respectively.

For the compound `CCCCCCCCCCCCCCCC(=O)N[C@@H](CCC(=O)NCCCC[C@H](NC(=O)[C@H](CC(=O)O)NC(=O)[C@H](CO)NC(=O)[C@@H](NC(=O)[C@H](Cc1ccccc1)NC(=O)[C@@H](NC(=O)CNC(=O)[C@H](CCC(N)=O)NC(=O)C(C)(C)NC(=O)[C@@H](N)Cc1c[nH]cn1)[C@@H](C)O)[C@@H](C)O)C(=O)N[C@@H](CO)C(=O)N[C@@H](CCCCN)C(=O)N[C@@H](Cc1ccc(O)cc1)C(=O)N[C@@H](CC(C)C)C(=O)N[C@@H](CC(=O)O)C(=O)N[C@@H](CCC(=O)O)C(=O)N[C@@H](CCCNC(=N)N)C(=O)N[C@@H](C)C(=O)N[C@@H](C)C(=O)N[C@@H](CCC(N)=O)C(=O)N[C@@H](CC(=O)O)C(=O)N[C@@H](Cc1ccccc1)C(=O)N[C@H](C(=O)N[C@@H](CCC(N)=O)C(=O)N[C@@H](Cc1c[nH]c2ccccc12)C(=O)N[C@@H](CC(C)C)C(=O)N[C@@H](CC(C)C)C(=O)N[C@@H](CC(=O)O)C(=O)N[C@@H](C)C(=O)NCC(=O)N1CCC[C@H]1C(=O)N[C@@H](CO)C(=O)N[C@@H](CO)C(=O)NCC(=O)N[C@@H](C)C(=O)N1CCC[C@H]1C(=O)N1CCC[C@H]1C(=O)N1CCC[C@H]1C(=O)N[C@@H](CO)C(N)=O)C(C)C)C(=O)O` [compound 64] (H-H[Aib]QGTFTSDK([γGlu-Palmitoyl])SKYLDERAAQDFVQWLLDAGPSSGAPPPS-NH2), the concentration giving a half-maximal response (EC50) at GIP receptor (setting [3]) was 19 pM; on glucagon receptor (setting [3]), 2 pM; at GLP-1 receptor (setting [3]), 3 pM.

With `CCCCCCCCCCCCCCCC(=O)N[C@@H](CCC(=O)NCCCC[C@H](NC(=O)[C@H](CC(=O)O)NC(=O)[C@H](CO)NC(=O)[C@@H](NC(=O)[C@H](Cc1ccccc1)NC(=O)[C@@H](NC(=O)CNC(=O)[C@@H](NC(=O)C(C)(C)NC(=O)[C@@H](N)Cc1c[nH]cn1)C(C)C)[C@@H](C)O)[C@@H](C)O)C(=O)N[C@@H](CO)C(=O)N[C@@H](CCCCN)C(=O)N[C@@H](Cc1ccc(O)cc1)C(=O)N[C@@H](CC(C)C)C(=O)N[C@@H](CC(=O)O)C(=O)N[C@@H](CCC(=O)O)C(=O)N[C@@H](CCCNC(=N)N)C(=O)N[C@@H](C)C(=O)N[C@@H](C)C(=O)N[C@@H](CCC(N)=O)C(=O)N[C@@H](CC(=O)O)C(=O)N[C@@H](Cc1ccccc1)C(=O)N[C@H](C(=O)N[C@@H](CCC(N)=O)C(=O)N[C@@H](Cc1c[nH]c2ccccc12)C(=O)N[C@@H](CC(C)C)C(=O)N[C@@H](CC(C)C)C(=O)N[C@@H](CCC(=O)O)C(=O)NCC(=O)NCC(=O)N1CCC[C@H]1C(=O)N[C@@H](CO)C(=O)N[C@@H](CO)C(=O)NCC(=O)N[C@@H](C)C(=O)N1CCC[C@H]1C(=O)N1CCC[C@H]1C(=O)N1CCC[C@H]1C(=O)N[C@@H](CO)C(N)=O)C(C)C)C(=O)O` [compound 45] (H-H[Aib]VGTFTSDK([γGlu-Palmitoyl])SKYLDERAAQDFVQWLLEGGPSSGAPPPS-NH2), the concentration for a half-maximal effect (EC50) at GIP receptor (setting [4]) was 5 pM; at glucagon receptor (setting [4]) it was 26 pM; at GLP-1 receptor (setting [4]), 6 pM.

For `CCCCCCCCCCCCCCCC(=O)N[C@@H](CCC(=O)NCCCC[C@H](NC(=O)[C@H](CC(=O)O)NC(=O)[C@H](CO)NC(=O)[C@@H](NC(=O)[C@H](Cc1ccccc1)NC(=O)[C@@H](NC(=O)CNC(=O)[C@H](CCSC)NC(=O)C(C)(C)NC(=O)[C@@H](N)Cc1c[nH]cn1)[C@@H](C)O)[C@@H](C)O)C(=O)N[C@@H](CO)C(=O)N[C@@H](CCCCN)C(=O)N[C@@H](Cc1ccc(O)cc1)C(=O)N[C@@H](CC(C)C)C(=O)N[C@@H](CCC(=O)O)C(=O)N[C@@H](CCC(=O)O)C(=O)N[C@@H](CCCNC(=N)N)C(=O)N[C@@H](C)C(=O)N[C@@H](C)C(=O)N[C@@H](CCC(N)=O)C(=O)N[C@@H](CCC(=O)O)C(=O)N[C@@H](Cc1ccccc1)C(=O)N[C@H](C(=O)N[C@@H](CCC(N)=O)C(=O)N[C@@H](Cc1c[nH]c2ccccc12)C(=O)N[C@@H](CC(C)C)C(=O)N[C@@H](CC(C)C)C(=O)N[C@@H](CCC(=O)O)C(=O)NCC(=O)NCC(=O)N1CCC[C@H]1C(=O)N[C@@H](CO)C(=O)N[C@@H](CO)C(=O)NCC(=O)N[C@@H](C)C(=O)N1CCC[C@H]1C(=O)N1CCC[C@H]1C(=O)N1CCC[C@H]1C(=O)N[C@@H](CO)C(N)=O)C(C)C)C(=O)O` [compound 31] (H-H[Aib]MGTFTSDK([γGlu-Palmitoyl])SKYLEERAAQEFVQWLLEGGPSSGAPPPS-NH2; N-terminus assumed), the EC50 was found to be 5 pM on GIP receptor (setting [2]), 30 pM at glucagon receptor (setting [2]) and 2 pM on GLP-1 receptor (setting [2]).
